Active and inactive are the calls of the source. No rule for the calls is given here.
test system: HepG2 cytotoxicity; assay: HepG2 cell cytotoxicity, cytotoxicity control (AID 1159563)

SMILES	IC50
Cc1cc(C)n(-c2nc(NC(C)(C)C)nc(N3CCOCC3)n2)n1	100 µM
Cc1nc2c(-c3nc(-c4ccc(N)cc4)n[nH]3)cccn2c1C	16 µM
COc1ccc(Oc2ccc(C(C)N(C)c3ncc4c(N)nc(N)nc4n3)cc2)cc1 (centres undefined)	40 µM
CC1CCCCN1C(=O)NCCc1coc(-c2ccc(F)cc2)n1 (centres undefined)	> 100 µM (inactive)
CC(Cn1ccnc1)NC(=O)C1CC1c1cccc(Cl)c1Cl (centres undefined)	> 100 µM (inactive)
Cc1ccc2sc(NC(=O)Cn3cnc([N+](=O)[O-])n3)nc2c1	> 100 µM (inactive)
COc1ccc(NS(=O)(=O)c2cc(-c3cc(C)[nH]n3)ccc2C)cc1OC	> 100 µM (inactive)
COc1ccc2nc(N(Cc3cccnc3)C(=O)C3CCC3)sc2c1	> 100 µM (inactive)
C=CCN(Cc1cccs1)C(=O)CSc1nnc(-c2ccc3c(c2)OCO3)o1	> 100 µM (inactive)
O=C(CN1CCC2(O)CCCCC2C1c1ccc2c(c1)OCO2)Nc1ccc(Cl)cc1Cl (centres undefined)	> 100 µM (inactive)
Cc1[nH]n2c(=O)c3c(nc2c1-c1ccc(Cl)cc1)CCCC3	> 100 µM (inactive)
O=C1CSC(c2cccnc2)N1c1ccc(Cl)cc1Cl (centres undefined)	> 100 µM (inactive)
CN(Cc1cc2ccccc2s1)c1ncc2c(N)nc(N)nc2n1	40 µM
O=C(NCC1CCCCC1)c1cc(=O)c2ccccc2o1	25 µM
CCCCN(C(=O)c1ccc(NC(=O)C(C)C)cc1)c1ccccc1	> 100 µM (inactive)
COc1ccc(-c2cnc(C)o2)cc1S(=O)(=O)Nc1ccc(C)cc1C	> 100 µM (inactive)
O=C1NCc2cccc(Nc3nc(NC4CCC(O)CC4)ncc3Br)c21 (centres undefined)	> 100 µM (inactive)
O=C(Nc1cccc(Cl)c1)N1CCCCC1c1cccnc1 (centres undefined)	> 100 µM (inactive)
COc1ccc2ncc(F)c(NC(=O)C3(O)CCC(NCc4ccc5c(c4)OCCO5)CC3)c2n1 (centres undefined)	50 µM
O=S(=O)(NCC(c1cccnc1)N1CCN(c2ccccc2F)CC1)c1ccc(F)cc1 (centres undefined)	> 100 µM (inactive)

SMILES	IC50
COc1cccc(CN(C)Cc2nc(N)c3c(C)c(C)sc3n2)c1	40 µM
Cc1ccccc1CNC(=O)CN(Cc1ccccn1)Cc1ccccn1	> 160 µM (inactive)
Fc1ccc(OC2CC(NCc3cccc4cn[nH]c34)C2)cc1C(F)(F)F (centres undefined)	25 µM
CN(C)S(=O)(=O)c1cccc(C(=O)Nc2nc(-c3ccccn3)cs2)c1	> 100 µM (inactive)
CCCNC(=O)Nc1cccc(-c2nc3ncccc3o2)c1	> 100 µM (inactive)
O=C(CCc1ccc(-c2ccccc2)o1)N1CCN(c2ccc(O)cc2)CC1	> 100 µM (inactive)
Nc1nonc1-c1nc2cncc(C(=O)N3CC[C@H](N)C3)c2n1CC1CC1	> 100 µM (inactive)
CC(=O)Nc1ccc(-c2ccnc(Nc3cccc(C#N)c3)n2)cc1	> 100 µM (inactive)
CN(Cc1cccnc1)Cc1ccc(N2CCN(C(=O)C3(c4ccc(Cl)cc4)CC3)CC2)nc1	> 100 µM (inactive)
CCc1c(C)nc(-n2nc(C)cc2NC(=O)COc2ccccc2F)[nH]c1=O	> 100 µM (inactive)
Cc1nc(-c2ccc3c(c2)OCO3)sc1C(=O)NCc1ccc2c(c1)OCO2	> 100 µM (inactive)
N#Cc1cccc(CNc2ccc(-c3cnn(CC4CC4)c(=O)c3C#N)cc2)c1	> 100 µM (inactive)
COc1ccc(-c2csc(NC(=O)c3ccc([N+](=O)[O-])s3)n2)cc1	> 100 µM (inactive)
O=C(CCCn1cnc([N+](=O)[O-])n1)Nc1cccc(Cl)c1	> 100 µM (inactive)
O=c1cc(CSc2ccc(Cl)cc2)nc(-c2ccccn2)[nH]1	> 100 µM (inactive)
O=C(Cn1cnc([N+](=O)[O-])n1)Nc1ccc(Cl)cc1C(=O)c1ccccc1	> 100 µM (inactive)
CCOc1cnn(C)c(=O)c1Nc1ccc(C(=O)NCc2ccc(F)cc2)cc1	> 100 µM (inactive)
CS(=O)(=O)c1cccc(-c2cnc(N)c3c(-c4ccc(CO)cc4)csc23)c1	> 100 µM (inactive)
Cc1ccc(-c2csc(NC(=O)C=Cc3ccc(S(=O)(=O)N4CCOCC4)cc3)n2)o1	> 100 µM (inactive)

— PubChem BioAssay AID1159563 (GlaxoSmithKline (GSK), 2015)
